Columns and labels:
[1] = Stability test of compound (Ia) in crystalline state (purity by HPLC on storage); format: physicochemical; settings: 20° C. and 40° C., after 6, 17, 21 and 31 days
Experimental: Stability Test of Compound (Ia) in Crystalline State
About 2 g of the compound (Ia) in a crystalline form which was obtained in the same way as Example 1 was placed in sample bottles, and the sample bottles were stored at room temperature (about 20° C.) and in a room maintained at a temperature of about 40° C. Taking the original purity as 100%, after every several number of days, the purity of the compound (Ia) was measured using high-performance liquid chromatography (HPLC). The HPLC measurement conditions are shown below.
Solvent delivery system: LC-10A (manufactured by Shimadzu Corporation)
UV, VIS detector: SPD-10A (manufactured by Shimadzu Corporation)
Detection wavelength: 215 nm
Column heater: Sugai U-620 (used at 40° C., Sugai Chemical Industry Co., Ltd.)
Column: Inertsil® ODS-2 (4.6 mm diameter×250 mm length, GL Sciences, Inc.)

[2] = disclosed in Patent Document 1; cited from earlier work

Row | SMILES | stability of the crystalline form [1] | stability in the crystalline form [2]
1 | C=CCOC(=O)C1=C(OP(=O)(OCC(Cl)(Cl)Cl)OCC(Cl)(Cl)Cl)[C@H](C)[C@@H]2[C@@H]([C@@H](C)O)C(=O)N12 [compound (Ia), allyl-(1R,5R,6S)-2-[bis(2,2,2-trichloroethyl)phosphoryloxy]-6-[(R)-1-hydroxyethyl]-1-methyl-carbapenem-3-carboxylate] | very stable without a decrease in purity | 
2 | C[C@@H](O)[C@H]1C(=O)N2C(C(=O)OCc3ccc([N+](=O)[O-])cc3)=C(OP(=O)(Oc3ccccc3)Oc3ccccc3)[C@H](C)[C@H]12 [compound (Ib)] |  | excellent stability in the crystalline form
